The subject of one series is A2780 cells. Briefly: In vitro proliferation assay, cultivated A2780 cells. Type of series: cell-based. Particulars: Homo sapiens, A2780, read-out: IC50 A2780.
Series [1] can be described thus: logD by reversed‐phase HPLC. Particulars: pH 7.5.
For another series, the system named is Caco2. Kind of series: Bidirectional Caco2 permeability assay, 24‐well format. Particulars: for P app A→B: Caco2, apical to basolateral; for permeability in either direction (P app A→B and P app B→A): Caco2, incubation period 90 min, possibly precipitation and sticking to plastics.
Series [2] can be described thus: High‐throughput metabolic stability assay, pooled human liver microsomes. Particulars: predicted hepatic metabolic (blood) clearance.
In another series the test system is rat hepatocytes. Briefly: High‐throughput metabolic stability assay, freshly harvested rat hepatocytes. Particulars: predicted hepatic metabolic (blood) clearance.
In a further series the target is CDK2 (Homo sapiens, UniProt P24941). Briefly: Biochemical in vitro kinase assay CDK2.
Another series concerns the target CDK9 (Homo sapiens, UniProt P50750). Kind of series: Biochemical in vitro kinase assay CDK9.
Series [3] can be described thus: Bidirectional Caco2 permeability assay, 24‐well format. The conditions noted are these: human. For orientation: Caco-2 cells form a polarised layer with tight junctions and transporters.
A further series deals with CDK4/CycD3 (Homo sapiens, UniProt P11802). Briefly: Biochemical assay at ProQinase, CDK4/CycD3.
Sequence of CDK4/CycD3 (P11802 whole entry): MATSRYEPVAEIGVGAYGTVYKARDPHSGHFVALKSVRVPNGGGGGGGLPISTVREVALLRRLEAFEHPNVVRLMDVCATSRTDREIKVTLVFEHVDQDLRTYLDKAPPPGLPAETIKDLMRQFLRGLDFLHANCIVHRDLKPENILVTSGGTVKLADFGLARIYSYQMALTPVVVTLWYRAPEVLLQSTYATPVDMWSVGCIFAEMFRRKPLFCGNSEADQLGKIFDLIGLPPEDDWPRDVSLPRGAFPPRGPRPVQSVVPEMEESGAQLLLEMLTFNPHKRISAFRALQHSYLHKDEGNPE
Sequence of CDK4/CycD3 (P30281 whole entry partner): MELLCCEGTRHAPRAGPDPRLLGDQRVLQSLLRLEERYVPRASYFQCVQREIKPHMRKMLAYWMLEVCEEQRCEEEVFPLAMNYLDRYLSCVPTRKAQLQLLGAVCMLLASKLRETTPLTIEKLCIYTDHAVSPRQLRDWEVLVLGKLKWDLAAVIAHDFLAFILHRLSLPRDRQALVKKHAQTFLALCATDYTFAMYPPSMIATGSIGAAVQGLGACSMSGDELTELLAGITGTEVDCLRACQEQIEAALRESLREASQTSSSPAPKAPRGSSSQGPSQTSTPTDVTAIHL
The next series concerns the target CDK6/CycD3 (Homo sapiens, UniProt Q00534). Briefly: Biochemical assay at ProQinase, CDK6/CycD3.
The next series deals with MOLM‐13 cells. Kind of series: In vitro proliferation assay, MOLM‐13 cells. The class given is cell-based. The conditions noted are these: Homo sapiens, MOLM-13, read-out: IC50 MOLM‐13.
The target of series [4] is T1, wild‐type estrogen receptor 1 (ESR1) (Homo sapiens, UniProt P03372).
T1 sequence (P03372 1-595): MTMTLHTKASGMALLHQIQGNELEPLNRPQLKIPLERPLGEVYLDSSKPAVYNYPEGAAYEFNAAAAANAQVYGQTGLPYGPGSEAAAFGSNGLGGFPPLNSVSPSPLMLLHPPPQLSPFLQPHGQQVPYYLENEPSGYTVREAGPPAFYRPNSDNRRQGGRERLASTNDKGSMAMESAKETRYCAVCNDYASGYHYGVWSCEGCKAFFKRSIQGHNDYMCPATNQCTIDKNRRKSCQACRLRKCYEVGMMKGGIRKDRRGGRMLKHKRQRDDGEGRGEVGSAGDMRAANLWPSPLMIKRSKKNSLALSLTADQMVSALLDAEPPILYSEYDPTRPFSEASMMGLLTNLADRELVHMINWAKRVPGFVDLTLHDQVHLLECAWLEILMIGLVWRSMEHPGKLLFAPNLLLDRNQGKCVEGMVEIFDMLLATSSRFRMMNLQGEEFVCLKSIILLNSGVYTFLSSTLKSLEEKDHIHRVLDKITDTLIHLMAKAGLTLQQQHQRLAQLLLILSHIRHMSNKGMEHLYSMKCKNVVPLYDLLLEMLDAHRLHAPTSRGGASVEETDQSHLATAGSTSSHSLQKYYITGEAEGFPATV
Briefly: Wild‐type estrogen receptor 1. The class given is cell-based.

For the next series, the system named is MCF7 cells. Kind of series: In vitro proliferation assay, human MCF7 cells stimulated with 17β‐estradiol. The class given is cell-based. Particulars: MCF7, read-out: IC50 MCF7 E2 stim.
For series [5] the following is noted: estimated; cited from earlier work.

In brackets after ≈: the same amount, converted by molar mass.

Sequence of CDK6/CycD3 (Q00534 whole entry): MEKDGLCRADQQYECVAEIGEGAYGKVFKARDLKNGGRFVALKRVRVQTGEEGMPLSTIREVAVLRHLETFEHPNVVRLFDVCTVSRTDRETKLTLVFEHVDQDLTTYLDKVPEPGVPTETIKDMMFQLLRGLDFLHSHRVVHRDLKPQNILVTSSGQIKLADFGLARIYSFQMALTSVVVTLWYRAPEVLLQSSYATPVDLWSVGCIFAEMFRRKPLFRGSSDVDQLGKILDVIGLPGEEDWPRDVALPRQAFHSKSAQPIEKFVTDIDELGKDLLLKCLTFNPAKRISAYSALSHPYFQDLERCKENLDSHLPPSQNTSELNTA
Sequence of CDK6/CycD3 (P30281 whole entry partner): as the sequence (P30281 whole entry partner) above
Sequence of CDK9 (P50750 whole entry): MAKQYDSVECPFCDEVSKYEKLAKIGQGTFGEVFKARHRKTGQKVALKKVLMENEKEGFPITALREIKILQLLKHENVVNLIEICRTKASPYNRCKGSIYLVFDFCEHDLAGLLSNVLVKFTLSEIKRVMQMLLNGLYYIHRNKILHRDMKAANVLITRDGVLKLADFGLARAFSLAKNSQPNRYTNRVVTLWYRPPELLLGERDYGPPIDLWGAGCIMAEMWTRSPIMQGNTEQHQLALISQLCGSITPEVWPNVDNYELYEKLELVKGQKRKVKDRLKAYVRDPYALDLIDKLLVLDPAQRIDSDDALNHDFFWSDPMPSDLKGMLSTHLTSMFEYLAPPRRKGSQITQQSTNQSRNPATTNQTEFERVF
Sequence of CDK9 (O60563 whole entry partner): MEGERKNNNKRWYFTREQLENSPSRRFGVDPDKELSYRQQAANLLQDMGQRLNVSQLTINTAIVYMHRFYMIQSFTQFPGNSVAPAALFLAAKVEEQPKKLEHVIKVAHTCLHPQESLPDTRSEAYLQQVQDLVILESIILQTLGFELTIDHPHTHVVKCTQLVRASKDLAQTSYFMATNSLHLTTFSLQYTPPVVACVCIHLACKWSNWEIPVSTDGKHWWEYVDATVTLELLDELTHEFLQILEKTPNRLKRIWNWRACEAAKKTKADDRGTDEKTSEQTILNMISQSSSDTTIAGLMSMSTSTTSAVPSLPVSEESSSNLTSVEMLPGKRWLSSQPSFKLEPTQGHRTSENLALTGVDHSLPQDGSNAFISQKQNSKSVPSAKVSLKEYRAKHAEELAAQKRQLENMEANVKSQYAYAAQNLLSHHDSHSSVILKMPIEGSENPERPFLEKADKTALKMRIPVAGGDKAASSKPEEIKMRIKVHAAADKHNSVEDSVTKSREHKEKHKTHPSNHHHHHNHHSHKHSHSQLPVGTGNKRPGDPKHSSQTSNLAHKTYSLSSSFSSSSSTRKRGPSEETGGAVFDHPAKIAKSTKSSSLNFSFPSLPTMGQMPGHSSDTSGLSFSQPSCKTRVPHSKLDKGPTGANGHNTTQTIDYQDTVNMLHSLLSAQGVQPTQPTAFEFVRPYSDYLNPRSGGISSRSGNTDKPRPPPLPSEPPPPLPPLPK

Consider `O=C(NC1CCNCC1)c1n[nH]cc1NC(=O)c1c(Cl)cccc1Cl` [AT7519, reference compound], for which the IC50 in the series with A2780 cells was 131 nM. This compound returned a chromatographic logD in series [1] of 1.3. Further, the “P app A→B” value with Caco2 stood at 0.1 ×10⁻⁶ cm/s. For the same compound, the “CLb hLMs” value in [2] was 4 mL/min/kg. Also, the “CLb rHep” value with rat hepatocytes is 28.3 mL/min/kg.
In the case of `N=S1(=O)CCC(NC(=O)c2n[nH]cc2NC(=O)c2c(Cl)cccc2Cl)CC1` (stereo not drawn) [compound 15, 4‐(2,6‐Dichlorobenzamido)‐N‐(1‐imino‐1‐oxo‐1λ^6‐thian‐4‐yl)‐1H‐pyrazole‐3‐carboxamide], the IC50 against CDK2 was determined as 522 nM; against CDK9, 124 nM; in the series on A2780 cells, 351 nM. Moreover, the chromatographic logD in [1] is 1.6. Further, the efflux ratio at 90 min in [3] (Caco-2) came to 37. For the same compound, the “P app A→B” value in the series on Caco2 came out at 0.14 ×10⁻⁶ cm/s. The “CLb hLMs” value in series [2] is 1 mL/min/kg. Moreover, the “CLb rHep” value in the series with rat hepatocytes is 1 mL/min/kg.
In the case of `CC(=O)c1c(C)c2cnc(Nc3ccc(N4CCS(=N)(=O)CC4)cn3)nc2n(C2CCCC2)c1=O` [compound 23, 4‐[6‐({6‐Acetyl‐8‐cyclopentyl‐5‐methyl‐7‐oxo‐7 H,8H‐pyrido[2,3‐d]pyrimidin‐2‐yl}amino)pyridin‐3‐yl]‐1‐imino‐1λ^6‐thiomorpholin‐1‐one], the concentration for half-maximal inhibition (IC50) against CDK4/CycD3 is 101 nM; on CDK6/CycD3, 240 nM; in the series with MOLM‐13 cells, 128 nM. In series [1], this compound gave a chromatographic logD of 2. The efflux ratio at 90 min in series [3] (Caco-2) came out at 9.1. The “P app A→B” value in the series with Caco2 was found to be 2.5 ×10⁻⁶ cm/s. For the same compound, the “CLb hLMs” value in series [2] was 4 mL/min/kg. Moreover, the “CLb rHep” value in the series with rat hepatocytes is 18.3 mL/min/kg.
With `CN(C)C(=O)c1cc2cnc(Nc3ccc(N4CCS(=N)(=O)CC4)cn3)nc2n1C1CCCC1` [compound 26, 7‐Cyclopentyl‐2‐{[5‐(1‐imino‐1‐oxo‐1λ^6‐thiomorpholin‐4‐yl)pyridin‐2‐yl]amino}‐N,N ‐dimethyl‐7H‐pyrrolo[2,3‐d]pyrimidine‐6‐carboxamide], the values for the IC50 against CDK4/CycD3, on CDK6/CycD3 and with MOLM‐13 cells were 216 nM, above 1000 nM and 1150 nM, respectively. The same compound yielded a chromatographic logD in [1] of 1.8. For the same compound, the efflux ratio at 90 min in series [3] (Caco-2) turned out to be 11. Besides, the “P app A→B” value in the series with Caco2 is 2.2 ×10⁻⁶ cm/s. For the same compound, the “CLb hLMs” value in series [2] was 3.5 mL/min/kg. In addition, in the series on rat hepatocytes, the “CLb rHep” value was 18.3 mL/min/kg.
`CCCc1nc(C)c2c(=O)[nH]c(-c3cc(S(=O)(=O)N4CCS(=N)(=O)CC4)ccc3OCC)nn12` [compound 29, 4‐(4‐Ethoxy‐3‐{5‐methyl‐4‐oxo‐7‐propyl‐3 H,4H‐imidazo[4,3‐f][1,2,4]triazin‐2‐yl}benzenesulfonyl)‐1‐imino‐1λ^6‐thiomorpholin‐1‐one] had a chromatographic logD in series [1] of 2. Besides, the efflux ratio at 90 min in series [3] (Caco-2, ER, Caco2 efflux ratio, P app B→A/P app A→B) is above 200. In addition, in the series on Caco2 (Caco2 efflux ratio, P app B→A/P app A→B), the ER was 288. Moreover, in [2], the “CLb hLMs” value was 7.17 mL/min/kg. In addition, the “CLb rHep” value in the series on rat hepatocytes is 35 mL/min/kg.
Regarding `C[C@]12CC[C@@H]3c4ccc(O)cc4C[C@@H](CCCCCCCCC[S@](=N)(=O)CCCC(F)(F)C(F)(F)F)[C@H]3[C@@H]1CC[C@@H]2O` [compound 33, 7α‐{9‐[(S)‐(4,4,5,5,5‐Pentafluoropentyl)sulfonimidoyl]nonyl}estra‐1,3,5(10)‐triene‐3,17β‐diol], the IC50 in [4] is 1.8 nM; in the series with MCF7 cells, 7.1 nM. For the same compound, the chromatographic logD in series [1] came to 3.8. Besides, the “permeability in either direction (P app A→B and P app B→A)” value with Caco2 is reported as “no permeability in either direction”. In addition, the “CLb hLMs” value in series [2] was 18.3 mL/min/kg. In the series with rat hepatocytes, the “CLb rHep” value was 58.3 mL/min/kg.
Turning to `C[C@]12CC[C@@H]3c4ccc(O)cc4C[C@@H](CCCCCCCCC[S+]([O-])CCCC(F)(F)C(F)(F)F)[C@H]3[C@@H]1CC[C@@H]2O` (stereo partly drawn) [fulvestrant, reference compound], the IC50 in the series on MCF7 cells was 9.2 nM. For the same compound, the aqueous solubility in series [5] was around 0.01 µg/mL (≈ 0.0165 µM). In series [1], this compound had a chromatographic logD of 4.2. Moreover, in the series on Caco2, the “permeability in either direction (P app A→B and P app B→A)” value is on record as “no permeability in either direction”. The “CLb hLMs” value in [2] was 20 mL/min/kg. Moreover, the “CLb rHep” value in the series on rat hepatocytes is 58.3 mL/min/kg.
Take `CC(=O)c1c(C)c2cnc(Nc3ccc(N4CCNCC4)cn3)nc2n(C2CCCC2)c1=O` [palbociclib, reference compound]: in the series with MOLM‐13 cells, the IC50 is 41 nM. Moreover, the chromatographic logD in series [1] was determined as 1.9. For the same compound, in the series with Caco2, the “P app A→B” value came to 7 ×10⁻⁶ cm/s. Moreover, the “CLb hLMs” value in series [2] was 7.5 mL/min/kg. In addition, the “CLb rHep” value in the series on rat hepatocytes was 21.7 mL/min/kg.
On the same counts, the results for `CN(C)C(=O)c1cc2cnc(Nc3ccc(N4CCNCC4)cn3)nc2n1C1CCCC1` [ribociclib, reference compound] are 89 nM, 1.7, 13.5 ×10⁻⁶ cm/s, 8.67 mL/min/kg and 38.3 mL/min/kg.
Take `CCCc1nc(C)c2c(=O)[nH]c(-c3cc(S(=O)(=O)N4CCN(CC)CC4)ccc3OCC)nn12` [vardenafil, reference compound]: in series [1], the chromatographic logD turned out to be 2.6. For the same compound, the “P app A→B” value with Caco2 came out at 20.6 ×10⁻⁶ cm/s. Also, the “CLb hLMs” value in [2] is 18.3 mL/min/kg. Also, the “CLb rHep” value with rat hepatocytes is 50 mL/min/kg.

A word on the IC50: it is the concentration that gives 50% inhibition. Broadly, the chromatographic logD is lipophilicity estimated from chromatographic retention. Higher therefore signals a more lipophilic compound. The term efflux ratio denotes the permeability from basolateral to apical divided by that in the opposite direction, in the common usage. The term aqueous solubility denotes the concentration that dissolves in the medium under given conditions.

Source of the values: PMC5485063 (Chemmedchem, 2017).
